Data from patent publication EP2061765B1, “Serine-threonine protein kinase and PARP modulators” (Senhwa Biosciences, Inc., priority 2006, dated 2008).

Experiments:
Experiment in all cases: Cell proliferation assay (Alamar Blue)
Format in all cases: cell-based
HCT-116 = conditions: Homo sapiens, 96 h, HCT-116 cells, four days
H1299 = conditions: Homo sapiens, NCI-H1299, 96 h, H1299 cells, four days
How it was run: (§1)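 In this dye-reduction proliferation format, cells grown with test compound for about four days receive Alamar Blue, with fluorescence measured roughly four hours later.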

Jurkat = conditions: Homo sapiens, 96 h, Jurkat cells, four days
How it was run: as §1

Hs578T = conditions: Homo sapiens, Hs-578T, 96 h, Hs578T cells, four days
How it was run: as §1

PC3 = conditions: Homo sapiens, PC-3, 96 h, PC3 cells, four days
How it was run: as §1

MiaPaCa = conditions: Homo sapiens, MIA PaCa-2, 96 h, MiaPaCa cells, four days
How it was run: as §1

A549 = conditions: Homo sapiens, 96 h, A549 cells, four days
How it was run: as §1

BxPC3 = conditions: Homo sapiens, BXPC-3, 96 h, BxPC3 cells, four days
How it was run: as §1

PanC1 = conditions: Homo sapiens, PANC-1, 96 h, PanC1 cells, four days
How it was run: as §1

| Compound | IC50 (HCT-116) [µM] | IC50 (H1299) [µM] | IC50 (Jurkat) [µM] | IC50 (Hs578T) [µM] | IC50 (PC3) [µM] | IC50 (MiaPaCa) [µM] | IC50 (A549) [µM] | IC50 (BxPC3) [µM] | IC50 (PanC1) [µM] |
| --- | --- | --- | --- | --- | --- | --- | --- | --- | --- |
| CN(C)CCNc1nc2cc(C(=O)O)ccc2c2cnccc12 | > 10 | 3.8 | 23.8 | 12.9 | 17.9 | – | – | – | – |
| COC(=O)c1ccc2c(c1)nc(Nc1ccccc1)c1ccncc12 | 15 | 13.1 | 6.83 | 4.78 | 11.3 | – | – | – | – |
| COc1cccc(Nc2nc3cc(C(=O)O)ccc3c3cnccc23)c1 | > 10 | 10.7 | 6.52 | 12.9 | 17.4 | > 10 | – | – | – |
| COC(=O)c1ccc2c(c1)nc(Nc1ccc(F)c(Cl)c1)c1ccncc12 | 3.94 | 8.46 | 4.25 | 2.62 | 9.02 | – | – | – | – |
| COC(=O)c1ccc2c(c1)nc(Nc1cccc(OC)c1)c1ccncc12 | 15 | 7.16 | 3.4 | 1.82 | 11.3 | – | – | – | – |
| COC(=O)c1ccc2c(c1)nc(Nc1ccc(F)c(Cl)c1)c1ncncc12 [drawing 295] | > 10 | 15.4 | 20.3 | 3.7 | 15.8 | – | – | – | – |
| O=C(O)c1ccc2c(c1)nc(Nc1ccc(F)c(Cl)c1)c1ncncc12 [drawing 296] | – | 7.55 | 4.29 | 9.7 | 18.8 | 1.22 | – | – | – |
| O=C(O)c1ccc2c(c1)nc(Nc1cccc(F)c1)c1ccncc12 [drawing 298] | – | 8.32 | 3.19 | 5.89 | 9.23 | 6.86 | – | – | – |
| Fc1cccc(Nc2nc3cc(-c4nnn[nH]4)ccc3c3cnccc23)c1 [drawing 305] | > 10 | > 50 | 9.43 | – | > 50 | > 10 | – | – | – |
| Fc1cc(Nc2nc3cc(-c4nnn[nH]4)ccc3c3cnccc23)ccc1Cl [drawing 306] | > 10 | > 50 | 18.8 | – | > 50 | > 10 | – | – | – |
| Clc1cccc(Nc2nc3cc(-c4nnn[nH]4)ccc3c3cnccc23)c1 [drawing 310] | > 10 | > 50 | 14.2 | – | 46.6 | > 10 | – | – | – |
| N#Cc1cccc(Nc2nc3cc(C(=O)O)ccc3c3cnccc23)c1 [drawing 312] | > 10 | – | 22 | 35.6 | 26.4 | > 10 | – | – | – |
| O=C(O)c1ccc2c(c1)nc(Nc1cccc(F)c1)c1ccncc12 [drawing 375] | – | – | – | – | – | – | 16.6 | – | – |
| COC(CNc1ncc2c(n1)c(Nc1ccc(F)c(Cl)c1)nc1cc(C(=O)O)ccc12)OC [drawing 506] | – | – | – | – | – | – | – | 2.86 | 41.5 |
| NC(=O)c1ccc2c(c1)nc(Nc1cccc(C(F)(F)F)c1)c1nc(NC3CC3)ncc12 [drawing 507] | – | – | – | – | – | – | – | 0.33 | > 50 |
| O=C(NC1CC1)c1ccc2c(c1)nc(Nc1cccc(C(F)(F)F)c1)c1nc(NC3CC3)ncc12 [drawing 508] | – | – | – | – | – | – | – | 2.73 | 16 |
| CNC(=O)c1ccc2c(c1)nc(Nc1cccc(C(F)(F)F)c1)c1nc(NC3CC3)ncc12 [drawing 509] | – | – | – | – | – | – | – | 3 | 18.9 |
| O=C(O)c1ccc2c(c1)nc(Nc1ccc(F)c(Cl)c1)c1nc(NCc3cccnc3)ncc12 [drawing 510] | – | – | – | – | – | – | – | 3.16 | 20.9 |
| O=C(O)c1ccc2c(c1)nc(Nc1ccccc1)c1nc(Nc3ccccc3)ncc12 [drawing 512] | – | – | – | – | – | – | – | 40.1 | 3.72 |
| CC(C)OC(=O)Nc1ccc2c(c1)nc(Nc1cccc(C(F)(F)F)c1)c1nc(NC3CC3)ncc12 [drawing 513] | – | – | – | – | – | – | – | 0.9 | 9.88 |
| CCOC(=O)CCNC(=O)c1ccc2c(c1)nc(Nc1cccc(C(F)(F)F)c1)c1nc(NC3CC3)ncc12 [drawing 514] | – | – | – | – | – | – | – | 8.76 | 0.44 |
